Here are results for 27 compounds from patent US9133158B2, “Bicyclic dihydroisoquinoline-1-one derivatives” (Hoffmann-La Roche Inc., priority 2011, dated 2015).

pEC50: −log10 of the molar value.

In one test the target is T1, human CYP11B1 (Homo sapiens, UniProt P15538).
T1 construct: expressed in transfected cells
T1 sequence (P15538 25-503): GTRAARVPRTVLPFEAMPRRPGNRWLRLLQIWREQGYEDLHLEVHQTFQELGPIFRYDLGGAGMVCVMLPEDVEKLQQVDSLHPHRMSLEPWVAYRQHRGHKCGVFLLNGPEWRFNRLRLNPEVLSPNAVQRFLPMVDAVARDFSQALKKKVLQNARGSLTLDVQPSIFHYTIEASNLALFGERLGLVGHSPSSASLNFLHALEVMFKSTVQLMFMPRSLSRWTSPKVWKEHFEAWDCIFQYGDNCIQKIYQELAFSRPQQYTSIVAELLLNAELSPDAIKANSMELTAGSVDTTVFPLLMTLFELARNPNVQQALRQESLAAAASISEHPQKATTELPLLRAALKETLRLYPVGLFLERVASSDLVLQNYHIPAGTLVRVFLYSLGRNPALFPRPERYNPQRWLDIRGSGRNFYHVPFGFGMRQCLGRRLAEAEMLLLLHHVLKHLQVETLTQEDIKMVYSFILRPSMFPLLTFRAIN
Kind of test: G-402 cellular enzyme assay, human CYP11B1 (cortisol release, HTRF). It is filed as cell-based. To be noted: G-402 cells, 1 μM Deoxycortisol. A digest of the protocol:
(§1)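 G-402 cells stably expressing human CYP11B1 or CYP11B2, in DMEM/F12 with 2.5% charcoal-treated FCS, were incubated 16 h with test compound and substrate (1 μM 11-deoxycortisol for CYP11B1; 1 μM deoxycorticosterone for CYP11B2). Cortisol or aldosterone in supernatant was quantified by HTRF; EC50 from 4-parameter MMF fit.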

Another test concerns the target T2, human CYP11B2 (Homo sapiens, UniProt P19099).
T2 construct: expressed in transfected cells
T2 sequence (P19099 25-503): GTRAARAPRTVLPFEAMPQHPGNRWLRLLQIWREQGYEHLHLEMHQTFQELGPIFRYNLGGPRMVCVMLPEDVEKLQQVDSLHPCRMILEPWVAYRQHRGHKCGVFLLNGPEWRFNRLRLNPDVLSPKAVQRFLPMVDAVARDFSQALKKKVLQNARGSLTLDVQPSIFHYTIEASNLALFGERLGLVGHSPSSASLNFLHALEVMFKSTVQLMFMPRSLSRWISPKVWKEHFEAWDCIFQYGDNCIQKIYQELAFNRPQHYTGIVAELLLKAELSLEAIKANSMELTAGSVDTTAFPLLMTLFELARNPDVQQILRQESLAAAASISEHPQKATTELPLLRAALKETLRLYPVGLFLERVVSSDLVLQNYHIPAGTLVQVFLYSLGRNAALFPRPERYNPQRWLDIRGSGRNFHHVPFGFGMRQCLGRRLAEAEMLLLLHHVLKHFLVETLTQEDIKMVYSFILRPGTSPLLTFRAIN
Description: G-402 cellular enzyme assay, human CYP11B2 (aldosterone release, HTRF). To be noted: G-402 cells, 1 μM Deoxycorticosterone. It is filed as cell-based. A digest of the protocol:
as §1

For orientation: pEC50 means the negative decadic logarithm of the EC50, by convention in mol/L. Take `CCC(=O)N[C@@H]1CCCc2c1cncc2N1C(=O)c2ccc(Cl)cc2[C@H]1C` (single isomer, unassigned) [Example 361, N-[(R or S)-4-((R or S)-5-Chloro-3-methyl-1-oxo-1,3-dihydro-isoindol-2-yl)-5,6,7,8-tetrahydro-isoquinolin-8-yl]-propionamide]: the values for the pEC50 on human CYP11B1 and at human CYP11B2 were 5.03 and 7.18, respectively.
On the same counts, the results for `O=C1c2ccc(Cl)cc2CN1c1cncc2c1CCC[C@@H]2O` [Example 340, 5-Chloro-2-((S)-8-hydroxy-5,6,7,8-tetrahydro-isoquinolin-4-yl)-2,3-dihydro-isoindol-1-one] are 4.85 and 7.05.
In the case of `O=C1c2ccc(Cl)cc2CCN1c1cncc(OC(F)F)c1` [Example 60, 6-Chloro-2-(5-difluoromethoxy-pyridin-3-yl)-3,4-dihydro-2H-isoquinolin-1-one], the pEC50 at human CYP11B1 is 6.10; at human CYP11B2, 7.15.
On the same counts, the results for `CC[C@@H]1c2cc(Cl)ccc2C(=O)N1c1cncc2c1CCC[C@H]2NC(C)=O` (single isomer, unassigned) [Example 358, N-[(R or S)-4-((R or S)-5-Chloro-3-ethyl-1-oxo-1,3-dihydro-isoindol-2-yl)-5,6,7,8-tetrahydro-isoquinolin-8-yl]-acetamide] are 6.36 and 8.30.
With `O=C1c2ccc(Cl)cc2CCN1c1cncc(Cn2ccc3c(F)cccc32)c1` [Example 186, 6-Chloro-2-[5-(4-fluoro-indol-1-ylmethyl)-pyridin-3-yl]-3,4-dihydro-2H-isoquinolin-1-one], the figures for the pEC50 on human CYP11B1 and on human CYP11B2 were 6.68 and 7.63, respectively.
On the same counts, the results for `O=C1CCCN1Cc1cncc(N2CCc3cc(Cl)ccc3C2=O)c1` [Example 155, 6-Chloro-2-[5-(2-oxo-pyrrolidin-1-ylmethyl)-pyridin-3-yl]-3,4-dihydro-2H-isoquinolin-1-one] are 5.39 and 6.88.
On the same counts, the results for `Cc1n[nH]cc1-c1cncc(N2CCc3cc(Cl)ccc3C2=O)c1` [Example 419, 6-Chloro-2-[5-(3-methyl-1H-pyrazol-4-yl)-pyridin-3-yl]-3,4-dihydro-2H-isoquinolin-1-one] are 6.91 and 8.04.
As to `N#Cc1cncc(N2CCc3cc(Cl)ccc3C2=O)c1` [Example 2, 5-(6-Chloro-1-oxo-3,4-dihydro-1H-isoquinolin-2-yl)-nicotinonitrile], the pEC50 was 5.13 on human CYP11B1 and 6.35 on human CYP11B2.
As for `CC(C)c1nccn1Cc1cncc(N2CCc3cc(Cl)ccc3C2=O)c1` [Example 141, 6-Chloro-2-[5-(2-isopropyl-imidazol-1-ylmethyl)-pyridin-3-yl]-3,4-dihydro-2H-isoquinolin-1-one], the figures for the pEC50 on human CYP11B1 and on human CYP11B2 were 5.88 and 7.39, respectively.
`CC(C)C(=O)Nc1cncc(N2CCc3cc(Cl)ccc3C2=O)c1` [Example 247, N-[5-(6-Chloro-1-oxo-3,4-dihydro-1H-isoquinolin-2-yl)-pyridin-3-yl]-isobutyramide]: the figures for the pEC50 on human CYP11B1 and at human CYP11B2 were 5.13 and 5.34, respectively.
On the same counts, the results for `CC1(C)c2cc(Cl)ccc2C(=O)N1c1cncc(OC2CC2)c1` [Example 306, 5-Chloro-2-(5-cyclopropoxy-pyridin-3-yl)-3,3-dimethyl-2,3-dihydro-isoindol-1-one] are 6.94 and 8.24.
With `O=C1c2ccc(Cl)cc2CCN1c1cncc(CCO)c1` [Example 23, 6-Chloro-2-[5-(2-hydroxy-ethyl)-pyridin-3-yl]-3,4-dihydro-2H-isoquinolin-1-one], the pEC50 at human CYP11B1 is 6.24; on human CYP11B2, 7.19.
On the same counts, the results for `O=C1c2ccc(Cl)cc2CCN1c1cnccc1C(O)c1ccc(F)cc1` (stereo not drawn) [Example 63, 6-Chloro-2-{4-[(4-fluoro-phenyl)-hydroxy-methyl]-pyridin-3-yl}-3,4-dihydro-2H-isoquinolin-1-one] are 5.35 and 6.35.
Consider `CC[C@H]1c2cc(Cl)ccc2C(=O)N1c1cncc2c1CC[C@@H]2NC(C)=O` (single isomer, unassigned) [Example 345, (−)-N—[(S or R)-4-((S or R)-5-Chloro-3-ethyl-1-oxo-1,3-dihydro-isoindol-2-yl)-6,7-dihydro-5H-[2]pyrindin-7-yl]-acetamide], for which the figures for the pEC50 on human CYP11B1 and at human CYP11B2 were 5.70 and 7.31, respectively.
As to `CC1(C)c2cc(Cl)ccc2C(=O)N1c1cncc(F)c1` [Example 129, 5-Chloro-2-(5-fluoro-pyridin-3-yl)-3,3-dimethyl-2,3-dihydro-isoindol-1-one], the results for the pEC50 at human CYP11B1 and at human CYP11B2 were 5.50 and 7.20, respectively.
On the same counts, the results for `O=C1c2ccc(Cl)cc2CCN1c1cncc(CN2CCS(=O)(=O)CC2)c1` [Example 156, 6-Chloro-2-[5-(1,1-dioxo-1λ^6-thiomorpholin-4-ylmethyl)-pyridin-3-yl]-3,4-dihydro-2H-isoquinolin-1-one] are 6.47 and 7.36.
On the same counts, the results for `O=C(c1cncc(N2CCc3cc(Cl)ccc3C2=O)c1)N1CCC(F)(F)CC1` [Example 47, 6-Chloro-2-[5-(4,4-difluoro-piperidine-1-carbonyl)-pyridin-3-yl]-3,4-dihydro-2H-isoquinolin-1-one] are 4.63 and 5.99.
On the same counts, the results for `COc1cncc(N2CC(C)c3cc(Cl)ccc3C2=O)c1` (stereo not drawn) [Example 107, 6-Chloro-2-(5-methoxy-pyridin-3-yl)-4-methyl-3,4-dihydro-2H-isoquinolin-1-one] are 6.11 and 7.20.
Regarding `CCC(=O)NCc1cncc(N2C(=O)c3ccc(F)cc3C2(C)C)c1` [Example 398, N-[5-(6-Fluoro-1,1-dimethyl-3-oxo-1,3-dihydro-isoindol-2-yl)-pyridin-3-ylmethyl]-propionamide], the pEC50 on human CYP11B1 is 5.64; on human CYP11B2 it was 6.55.
Regarding `O=C1c2ccc(Cl)cc2CCN1c1cncc(F)c1` [Example 5, 6-Chloro-2-(5-fluoro-pyridin-3-yl)-3,4-dihydro-2H-isoquinolin-1-one], the values for the pEC50 on human CYP11B1 and on human CYP11B2 were 5.37 and 7.03, respectively.
On the same counts, the results for `CC(C)Oc1cncc(N2C(=O)c3ccc(Cl)cc3C2(C)C)c1` [Example 304, 5-Chloro-2-(5-isopropoxy-pyridin-3-yl)-3,3-dimethyl-2,3-dihydro-isoindol-1-one] are 7.11 and 8.62.
On the same counts, the results for `Cn1nccc1-c1cncc(N2C(=O)c3ccc(Cl)nc3C2(C)C)c1` [Example 425, 2-Chloro-7,7-dimethyl-6-[5-(2-methyl-2H-pyrazol-3-yl)-pyridin-3-yl]-6,7-dihydro-pyrrolo[3,4-b]pyridin-5-one] are 5.90 and 7.25.
On the same counts, the results for `O=C1c2ccc(Cl)cc2CCN1c1cncc(-c2cccc(Cl)c2)c1` [Example 234, 6-Chloro-2-[5-(3-chloro-phenyl)-pyridin-3-yl]-3,4-dihydro-2H-isoquinolin-1-one] are 5.80 and 7.35.
`CC1(C)c2cc(Cl)ccc2C(=O)N1c1cncc(CN2CCNC2=O)c1` [Example 411, 5-Chloro-3,3-dimethyl-2-[5-(2-oxo-imidazolidin-1-ylmethyl)-pyridin-3-yl]-2,3-dihydro-isoindol-1-one]: the figures for the pEC50 on human CYP11B1 and at human CYP11B2 were 6.11 and 7.71, respectively.
On the same counts, the results for `O=C1c2ccc(Cl)cc2CCN1c1cncc(Br)c1` [Example 7, 2-(5-Bromo-pyridin-3-yl)-6-chloro-3,4-dihydro-2H-isoquinolin-1-one] are 6.15 and 7.11.
On the same counts, the results for `Cn1ncc(Cl)c1-c1cncc(N2CCc3cc(Cl)ccc3C2=O)c1` [Example 421, 6-Chloro-2-[5-(4-chloro-2-methyl-2H-pyrazol-3-yl)-pyridin-3-yl]-3,4-dihydro-2H-isoquinolin-1-one] are 7.49 and 9.15.
On the same counts, the results for `Cn1cc(-c2cncc(N3CCc4cc(Cl)ccc4C3=O)c2)cn1` [Example 239, 6-Chloro-2-[5-(1-methyl-1H-pyrazol-4-yl)-pyridin-3-yl]-3,4-dihydro-2H-isoquinolin-1-one] are 7.05 and 7.98.
